Tests used:
[1] = system: patients experiencing severe refractory chronic GVHD; experiment: Case studies: CBD for severe refractory chronic GVHD; format: in vivo, human; details: person
Protocol: This example describes cases studies that show the surprising efficacy of CBD treatment of patients experiencing severe refractory chronic GVHD.
A person with acute lymphoid leukemia in first complete remission, underwent an allogeneic hematopoietic cell transplantation from a matched unrelated donor with myeloablative conditioning consisting of total body irradiation (12 Gray), cyclophosphamide and ATG (Fresenius, 15 mg/kg). The patient developed an overlap syndrome (concomitant acute plus chronic GVHD features) during the first month after transplantation which was treated with cyclosporine and steroids until complete remission. Immunosuppression was stopped 5 months after transplantation. Eighteen months after transplantation they developed chronic extensive GVHD with involvement of the oral cavity, eyes, liver, joints and skin. Skin involvement progressed to sclerosis. They started again cyclosporine and oral steroids with no improvement. There was no further improvement with imatinib (Gleevec). […] Unexpectedly, Prednisone effective therapeutic dose was tapered off up to 7.5-10 mg QD (20-50% reduction in the steroid's dose).
A person with acute myeloid leukemia in second complete remission underwent an allogeneic hematopoietic cell transplantation from a matched sibling donor with myeloablative conditioning consisting of busulfex (12.8 mg/kg) and cyclophosphamide (120 mg/kg). The patient experienced relapse in the central nervous system and breasts 12 months after transplantation, received chemo-radiotherapy and achieved complete remission. Shortly after remission, they developed chronic extensive GVHD with severe involvement of the eyes, joint and skin. Skin involvement progressed to severe sclerosis with limited range of motion of the joints. They were unresponsive to cyclosporine and oral steroids and therefore they were stopped after few months.

[2] = system: patients with extensive chronic GVHD after allogeneic HCT; experiment: CBD treatment for chronic GVHD (12 patients); format: in vivo, human; details: oral CBD 50 mg twice a day
Protocol: Twelve patients over 18 years of age with extensive chronic GVHD after allogeneic HCT were recruited at the Rabin Medical Center in Israel. Patients having a history of psychosis or asthma, or consuming Cannabis during the last two months before transplantation were excluded from the study.
Patients were presently treated with a calcineurine inhibitor (cyclosporine or tacrolimus) with or without oral prednisone.
Patients were given oral CBD 50 mg twice a day.

[3] = system: patients experiencing severe acute GVHD; experiment: Case studies: CBD for severe (grade 3-4) and/or refractory acute GVHD; format: in vivo, human
Protocol: This example describes cases studies that show the surprising efficacy of CBD treatment of patients experiencing severe acute GVHD.
A person with acute myeloid leukemia in second complete remission, underwent an allogeneic hematopoietic cell transplantation from a matched sibling donor with a myeloablative conditioning consisting of fludarabine (160 mg/m^2) and busulfex (12.8 mg/kg). One month post-transplantation they developed classic grade 4 acute GVHD of the gastro-intestinal tract (GIT) confirmed by intestinal biopsy. They were refractory to cyclosporine and high-dose steroids, and was then given second line therapy consisting of mycophenolate mofetil followed by extra-corporeal photopheresis (ECP), from which a partial response was obtained. The patient then developed severe myopathy and became bed restricted. During tapering off of steroids they had relapse of grade 4 acute GVHD with GIT and skin involvement. They were refractory to high-dose steroids and thus started oral cannabidiol (CBD) 150 mg twice a day. […] CBD was stopped several weeks later upon remission. […] Nevertheless, they developed chronic GVHD for which they were given low dose cyclosporine and low dose prednisone.
A person with Philadelphia positive acute lymphoid leukemia in first complete remission underwent an allogeneic hematopoietic cell transplantation from a matched unrelated donor with reduced intensity conditioning consisting of fludarabine (150 mg/m^2), busulfex (12.8 mg/kg) and ATG (Fresenius, 15 mg/kg). Two months after transplantation, they developed generalized erythroderma ranked as stage 3 and grade 2 acute GVHD of the skin, which was confirmed by skin biopsy. Due to refractoriness to tacrolimus, systemic and topical steroids they started ECP with some improvement but without remission. They were still on tacrolimus and steroids when 11 months post-transplantation they had severe worsening of their skin rash with generalized erythroderma and desquamation ranked as stage 4 and grade 4 acute GVHD of the skin. They started oral CBD 150 mg twice a day and prednisone 40 mg once a day. […] CBD was stopped 2 months later after obtaining complete remission of acute GVHD.
A person with acute myeloid leukemia in first complete remission, underwent an allogeneic hematopoietic cell transplantation from a matched sibling donor with myeloablative conditioning consisting of busulfex (12.8 mg/kg) and cyclophosphamide (120 mg/kg). Eight months post-transplantation, leukemia relapsed. They received salvage chemotherapy followed by donor lymphocyte infusion (DLI) and achieved a complete hematologic remission. One month post DLI they developed jaundice with bilirubin levels of 11.5 mg % (normal≤1 mg %) and biopsy proven late onset acute GVHD of the liver ranked as stage 3 and grade 3. They were refractory to high-dose steroids and started oral CBD 150 mg twice a day.

[4] = system: patient suffering from psychological or neurological disorders; details: doses of up to 1500 mg per day; cited from earlier work
[5] = system: patients undergoing allogeneic hematopoietic stem cell transplantation; experiment: Prevention of acute and chronic GVHD in allogeneic stem cell transplanted patients (46 patients); format: in vivo, human; design: Non-relapse mortality / Overall survival rate: concentration or dose not given beside the values
Protocol: Forty six (46) patients over 18 years of age undergoing allogeneic hematopoietic stem cell transplantation at the Rabin Medical Center in Israel were recruited. Patients having history of psychosis or asthma, or consuming Cannabis during the last two months before transplantation were excluded from the study.
All patients received standard GVHD prophylaxis consisting of cyclosporine twice a day starting on day −1 with target trough levels ≥200 ng/mL in combination with short course of methotrexate (15 mg/sqm on day +1 and 10 mg/sqm on days +3 and +6). Most patients transplanted from unrelated donors received anti-T-cell globulin (ATG Fresenius) at a low dose of 5 mg/kg on days −3 to −1.
The investigational agent, CBD (STI Pharmaceuticals, Brentwood, Essex, UK) was dissolved in olive oil at a concentration of 2.5% and was orally administered from day −7 through day +30. The starting dose of CBD was 10 mg twice a day, and doses were doubled every other day to a maximal dose of 150 mg twice a day.
To estimate the prophylactic and therapeutic effect of Cannabidiol, the patients were carefully monitored and documented for the presentation of acute and chronic GVHD symptoms, the time of onset, the severity of the symptoms, the responsiveness to treatment, and the occurrence of infections.
Furthermore, a panel of 4 serum cytokines (soluble TNF receptor 1 (sTNFRI), soluble IL-2 receptor alpha (sIL2R-alpha), hepatocyte growth factor (HGF), and IL8)) were monitored. Blood samples were taken at days −7(A), 0(B), +14(C), and +28(D). The difference in blood levels between the various time points (B-A, C-B and D-C) were assessed.
Primary end points were safety and cumulative incidence of grade 2-4 and grade 3-4 GVHD by day +100. The secondary end points were cumulative incidence of chronic and severe chronic GVHD, non-relapse mortality (NRM), relapse incidence (RI), and overall survival (OS). NRM mortality was defined as death while the patient was in CR. Cumulative incidence curves were used for acute GVHD and chronic GVHD estimation, taking into account relapse and death as competing risks. Cumulative incidence curves were used for RI and NRM taking into account disease recurrence and death as competing events. Probabilities of OS and LFS were calculated using the Kaplan-Meier estimates.

[6] = system: patients with late onset acute GVHD given steroids; experiment: Case studies: CBD reduces the effective dose of steroids (late onset acute GVHD); format: in vivo, human
Protocol: Person one with secondary acute myeloid leukemia in 1st complete remission, underwent and allogeneic hematopoietic cell transplantation from a matched unrelated donor with a myeloablative conditioning consisting of fludarabine (160 mg/m^2), busulfex (12.8 mg/kg) and ATG (Fresenius, 15 mg/kg). Eleven months after transplantation they developed jaundice with bilirubin level of 4.2 mg % and biopsy proven late onset acute GVHD of the liver ranked as stage 2 and grade 3. […] They started oral CBD 150 mg BID. […] Steroids could be tapered off to a low dose of 7.5 mg QD.
person two with refractory follicular lymphoma underwent an allogeneic hematopoietic cell transplantation from a matched unrelated donor with a reduced intensity conditioning consisting of fludarabine (150 mg/m^2), melphalan (100 mg/m^2) and ATG (Fresenius 15 mg/kg) and achieved a complete remission. Two years later they relapsed and received salvage immune-chemotherapy with bendamustine and rituximab followed by DLI and achieved a complete remission. One month later they were admitted with severe late onset acute GVHD with skin (rash) and upper (nausea and vomiting) plus lower gastrointestinal involvement (bloody diarrhea, crampy abdominal pain and severely inflamed and ulcerated mucosa). Biopsy proven GVHD was ranked as stage 3 of the skin and stage 4 and grade 4 acute GVHD of the GIT. They started cyclosporine and high-dose steroids. Despite skin response, GVHD of the GIT was refractory to prolonged systemic treatment of steroids. […] Prednisone was tapered off to 20 mg QD (40%)—found to be therapeutically effective.

[7] = with calcineurine inhibitor with or without oral prednisone
[8] = person, stage 3 grade 3 acute GVHD of the liver, oral CBD 150 mg twice a day
[9] = of the 11 patients with chronic GVHD

For `C=C(C)[C@@H]1CCC(C)=C[C@H]1c1c(O)cc(CCCCC)cc1O` [CBD, 2-[(6R)-3-Methyl-6-prop-1-en-2-yl-1cyclohex-2-envyl]-5pentylbenzene-1,3-diol], the “clinical response, chronic extensive GVHD with severe sclerosis” value ([1]; cyclosporine and oral steroids stopped, oral CBD 75 mg BID, after several months) was “significant improvement of their skin and joints range of motion”, the “clinical response, chronic extensive GVHD (oral cavity, eyes, liver, joints, skin sclerosis)” value ([1]; no improvement with cyclosporine, oral steroids, imatinib, oral CBD 75 mg twice a day, after several weeks) was “resolved their liver and oral GVHD and significantly improved skin sclerosis and joint range of motion” and the “Prednisone effective therapeutic dose tapered off up to” value ([1]; oral CBD 75 mg twice a day) was 7.5-10 mg QD. For the same molecule, the “reduction in the steroid's dose” value ([1]; oral CBD 75 mg twice a day) was 20-50%, the “effect on severity of chronic GVHD (conclusion)” value [2] was “reduces the severity of chronic GVHD” and the “clinical improvement, patients with lung involvement” value [2, 7] was 2 out of 3. For the same molecule, the “clinical improvement, patients with oral involvement” value [2, 7] was 3 out of 3, the “clinical improvement, patients with skin involvement” value [2, 7] was 6 out of 8 and the “effect on refractory steroid dose (conclusion of case studies)” value ([3]; acute Grade 3 and Grade 4 GVHD) was “rendered a refractory dose of a steroid-therapeutically effective”. For the same molecule, the “clinical response, grade 4 acute GVHD with GIT and skin involvement” value ([3]; person, refractory to high-dose steroids, oral CBD 150 mg twice a day, after 14 days) was “complete cessation of diarrhea and resolution of their skin rash”, the “bilirubin level after treatment” value ([3]; person, stage 3 grade 3 acute GVHD of the liver, baseline 11.5 mg %, refractory to high-dose steroids, oral CBD 150 mg twice a day) was 0.7-1.3 mg % and the jaundice [3, 8] was “resolved within few days”. For the same molecule, the steroid tapering [3, 8] was “tapered off until complete cessation”, the “acute GVHD status at follow-up” value ([3]; person, eighteen months following cessation of treatment) was “no symptoms or signs of acute GVHD” and the “skin rash and desquamation, stage 4 and grade 4 acute GVHD of the skin” value ([3]; person, oral CBD 150 mg twice a day and prednisone 40 mg once a day, on tacrolimus) was “improved promptly until complete resolution”. For the same molecule, the “adverse effects in clinical studies” value [4] was “without any significant adverse effects”, the “Cumulative incidence of relapse” value ([5]; 6 months after HCT) was 22% and the Non-relapse mortality ([5]; 6 months after HCT) was 11.6%. For the same molecule, the Overall survival rate ([5]; 6 months after HCT) was 76%, the “Cumulative incidence of relapse” value ([5]; 12 months after HCT) was 31% and the Non-relapse mortality ([5]; 12 months after HCT) was 11.6%. For the same molecule, the Overall survival rate ([5]; 12 months after HCT) was 70%, the “patients who developed grade 2 to 4 acute GVHD” value ([5]; 46 patients recruited, CBD prophylaxis) was “Six” and the “Cumulative incidence of relapse” value ([5]; 100 days after HCT) was 12%. The Non-relapse mortality ([5]; 100 days after HCT) was 8.1%, the Overall survival rate ([5]; 100 days after HCT) was 84% and the “effect on incidence and severity of GVHD (conclusion)” value ([5]; after allogeneic stem cell transplantation) was “reduces the incidence and severity of acute and chronic GVHD”. The “patients in whom chronic GVHD occurred” value ([5]; among patients surviving more than 100 days after HCT (n=33)) was 11 patients, the “Cumulative incidence rate of extensive chronic GVHD” value ([5]; at 1 year) was 19% and the “Cumulative incidence rate of overall chronic GVHD” value ([5]; at 1 year) was 43%. The “Cumulative incidence rate of grade 2 to 4 acute GVHD” value ([5]; at day 100) was 12.4%, the “Cumulative incidence rate of grade 3 to 4 acute GVHD” value ([5]; at day 100) was 5% and the “patients with limited chronic GVHD” value [5, 9] was 8 patients. For the same molecule, the “patients with severe chronic GVHD” value [5, 9] was 3 patients, the “grade 3 to 4 toxicities related to CBD” value ([5]; oral CBD 2.5% in olive oil, day -7 to +30, 10 mg up to 150 mg twice a day, with cyclosporine + methotrexate prophylaxis) was “No grade 3 to 4 toxicities related to CBD were observed” and the “toxicity and psychotropic effects (conclusion)” value ([5]; preventing acute and chronic GVHD) was “low toxicity and lack of psychotropic effects”. The “Median time to onset of grade 2 to 4 acute GVHD” value ([5]; range 41 to 150 days) was 60 days, the “median time to onset of chronic GVHD” value ([5]; range 125 to 335 days) was 159 days and the “jaundice and bilirubin, stage 3 and grade 3 acute GVHD of the liver” value ([6]; person one, bilirubin 8.5 mg % on tacrolimus and steroids, oral CBD 150 mg BID) was “Jaundice resolved gradually and bilirubin dropped to normal levels”. The “steroid dose tapered off to” value ([6]; person one, oral CBD 150 mg BID) was 7.5 mg QD, the “clinical response, stage 4 and grade 4 acute GVHD of the GIT” value ([6]; person two, refractory to prolonged systemic steroids, oral CBD 150 mg BID with steroids) was “very good partial response (VGPR)” and the “response upon renewal of treatment” value ([6]; person two, methylprednisolone 0.5 mg/kg QD and CBD 150 mg BID) was “A second VGPR was obtained”. The “Prednisone tapered off to” value ([6]; person two, oral CBD 150 mg BID) was 20 mg QD, the “Prednisone tapered dose, printed percentage” value ([6]; person two, oral CBD 150 mg BID, prednisone 20 mg QD) was 40% and the “outcome after discontinuing CBD” value ([6]; person two, two months later, CBD discontinued without doctors' approval) was “diarrhea resumed following discontinuing CBD”.

Reference: patent US11357740B2, “Cannabidiol for enhancing the therapeutic effect of a steroid” (STERO BIOTECHS LTD., priority 2013, dated 2022)
